Test results: PubChem BioAssay AID1996
Converted amounts (≈) assume the structure as drawn.

Details: buffer; pH 7.4; 200.0 µM

Point of comparison: `O=C(Nc1ccc(Cl)cc1)N1CCN(Cc2ccc3c(c2)OCO3)CC1`, solubility kinetic 5.7 µg/mL (≈ 15.2 µM). Against it:
- Cc1[nH]c2ccccc2c1CCNCc1ccco1.Cl — higher, > 43.6 µg/mL
- O=C(NCc1ccccc1Br)C1CCCO1 (centres undefined) — higher, > 42.6 µg/mL
- CC1CC(C)CN(C(=O)COC(=O)c2ccc(S(=O)(=O)N(C)c3ccccc3)cc2)C1 (centres undefined) — within 1.5-fold, 7.8 µg/mL (≈ 17.5 µM)
- CN(CCO)C(=O)C(c1ccccc1)c1ccccc1 — 6.4-fold higher, 36.2 µg/mL (≈ 134 µM)
- O=C(Nc1nc2cc3c(cc2s1)OCO3)c1ccco1 — 5.7-fold lower, 1 µg/mL (≈ 3.47 µM)
- COc1cccc(C(=O)CC(C#N)c2ccc(F)cc2)c1 (centres undefined) — 2.8-fold higher, 16 µg/mL (≈ 56.5 µM)
- NC(=O)Cn1c(=O)n(Cc2ccccc2)c(=O)c2cccnc21 — 5.9-fold higher, 33.8 µg/mL (≈ 109 µM)
- CC(=O)c1ccc(Oc2nc3c(c(=O)n(C)c(=O)n3C)n2C)cc1 — 1.6-fold higher, 9.1 µg/mL (≈ 27.7 µM)
- CN(CC(=O)Nc1cccc(F)c1)C(=O)c1ccncc1 — higher, > 43.1 µg/mL
- C=CCN1C2CCCC1CC(NC(=S)Nc1ccc(Cl)cc1)C2 (centres undefined) — higher, > 52.5 µg/mL
- Cc1ccccc1NC(=O)NCCCN1CCCC1=O — higher, > 41.3 µg/mL
- CCCOC(=O)c1ccc(NC(=O)c2ccccc2[N+](=O)[O-])cc1 — 1.9-fold higher, 11 µg/mL (≈ 33.5 µM)
- COc1ccccc1NC(=O)C(C)N(C)CCOc1ccccc1 (centres undefined) — 4.1-fold higher, 23.1 µg/mL (≈ 70.3 µM)
- O=C(Nc1ccccc1O)N1c2ccccc2Sc2ccccc21 — lower, < 0.4 µg/mL
- Cc1ccc(Oc2ncnc(N)c2[N+](=O)[O-])cc1C — within 1.5-fold, 4.8 µg/mL (≈ 18.4 µM)
- Cc1cc(Cl)c(Cl)cc1S(=O)(=O)NCCCn1ccnc1 — 7.9-fold higher, 45.2 µg/mL (≈ 130 µM)
- c1cnc2ccc(-c3ccc4ncccc4c3)cc2c1 — within 1.5-fold, 7.7 µg/mL (≈ 30 µM)
- CSc1nc(-c2ccc(C)cc2)nc(N)c1C#N — lower, < 0.1 µg/mL
- COc1ccc(CNC(=O)CN2C(=O)NC3(CCCCCCC3)C2=O)cc1 — 4.1-fold higher, 23.4 µg/mL (≈ 62.7 µM)
- COCCOC(=O)C1=C(C)NC(=O)NC1c1cccc2ccccc12 (centres undefined) — 8.6-fold higher, 48.8 µg/mL (≈ 143 µM)
- CCCCCCCC(=O)NC1=NC(=O)C(C)(C)S1 — within 1.5-fold, 5 µg/mL (≈ 18.5 µM)
- O=C1c2ccccc2NC(c2cccc([N+](=O)[O-])c2)N1O (centres undefined) — higher, > 42.8 µg/mL
- CC(C)CC(=O)Nc1ccc(S(=O)(=O)Nc2nccs2)cc1 — higher, > 50.9 µg/mL
- CCOC(=O)c1sc(-c2ccc(Cl)cc2)nc1O — 7.2-fold higher, 40.8 µg/mL (≈ 144 µM)
- CCOc1ccccc1NC(=O)N1CCCN(c2ncccc2C#N)CC1 — 8-fold higher, 45.7 µg/mL (≈ 125 µM)
- CCOC(=O)N1CCN(CC(=O)Nc2sccc2C#N)CC1 — higher, > 48.4 µg/mL
- FC(F)(F)c1ccnc(N2CCN(Cc3cnc(-c4ccccc4)[nH]3)CC2)c1 — 4.7-fold higher, 26.8 µg/mL (≈ 69.2 µM)
- Cc1cccc(C)c1NC(=O)Cc1cccs1 — higher, > 36.8 µg/mL
- O=C(COC(=O)Cc1ccccc1F)Nc1cccc(F)c1 — higher, > 45.8 µg/mL
- Cc1ccc(/C=C/C(=O)OCC(=O)Nc2cccnc2Cl)o1 — 2.1-fold higher, 11.8 µg/mL (≈ 36.8 µM)
- CC(C)=CC(=O)Nc1cccc(S(=O)(=O)NC2=NCCCCC2)c1 — higher, > 52.4 µg/mL
- COc1cc([N+](=O)[O-])ccc1NC(=S)N1CCN(c2ccccn2)CC1 — 2.1-fold higher, 12.2 µg/mL (≈ 32.7 µM)
- CCOC(=O)C1CCCN(C(=O)CN2C(=O)c3ccccc3S2(=O)=O)C1 (centres undefined) — higher, > 57.1 µg/mL
- Cc1c2n(c3ccccc13)CC/C2=N\O — within 1.5-fold, 4.9 µg/mL (≈ 24.5 µM)
- O=C(O)c1ccccc1-c1ncc(-c2ccccc2)o1 — higher, > 39.8 µg/mL
- CCCCC(=O)NC(=O)NC(c1ccccc1)c1ccccc1 — lower, < 0.3 µg/mL
- C=CCSc1nc(C)c(CCCC)c(=O)[nH]1 — higher, > 35.8 µg/mL
- Cc1c(N)c(C)c([N+](=O)[O-])c(C)c1[N+](=O)[O-] — within 1.5-fold, 6.9 µg/mL (≈ 30.6 µM)
- Cc1cccc(C)c1NC(=O)CN1CCN(C(=O)c2ccc(OCc3cn4ccccc4n3)cc2)CC1 — higher, > 74.6 µg/mL
- Cc1ccc(S(=O)(=O)N2CCOCC2)cc1C(=O)c1nccn1C — higher, > 52.4 µg/mL
- NS(=O)(=O)c1cc(C(=O)N2CCNC(=O)C2)ccc1Cl — higher, > 47.7 µg/mL
- Nc1nc(SCC(=O)N2CCOCC2)[nH]c(=O)c1-c1ccccc1 — higher, > 52 µg/mL
- COc1ccc(CN(C)C(=O)CNC(=O)c2ccc(C)cc2)cc1 — higher, > 49 µg/mL
- Cc1cc(S(=O)(=O)N2CCN(c3ccccn3)CC2)ccc1F — 1.6-fold lower, 3.6 µg/mL (≈ 10.7 µM)
- COc1ccc(OCC(O)CN2CCNCC2)cc1.Cl (centres undefined) — 8.7-fold higher, 49.5 µg/mL
- COc1ccc(CCNC2CCCCCC2)cc1 — higher, > 37.1 µg/mL
- Cc1ccc(-n2c(SCC(=O)N3CCCCC3)nc(O)cc2=O)cc1 — 8.8-fold higher, 49.9 µg/mL (≈ 139 µM)
- CCOC(=O)c1ccc(N2C(=O)CC(C)(CC)CC2=O)cc1 — higher, > 45.5 µg/mL
- O=C(NCCCNC(=O)c1c(F)cccc1F)c1c(F)cccc1F — higher, > 53.1 µg/mL
- N#CCc1ccc(Oc2ccc([N+](=O)[O-])cn2)cc1 — 6.2-fold higher, 35.6 µg/mL (≈ 139 µM)
- CCOCCCNCc1cc(Cl)ccc1OCC.Cl — higher, > 46.2 µg/mL
- O=CN1CCN(C(=O)c2cc3cc(Cl)ccc3[nH]2)CC1 — 6.1-fold higher, 34.9 µg/mL (≈ 120 µM)
- COc1ccccc1NC(=O)O/N=C(\N)c1ccccc1 — higher, > 42.8 µg/mL
- O=C(/C=C/c1cccnc1)c1cc(F)ccc1O — 3.5-fold higher, 19.8 µg/mL (≈ 81.4 µM)
- O=c1c2ccccc2nc2n1C(CSc1ccc(F)cc1)CS2 (centres undefined) — higher, > 51.7 µg/mL
- Cc1cccc(NC(=O)NC(=O)c2ccccc2)n1 — 7.1-fold lower, 0.8 µg/mL (≈ 3.13 µM)
- O=C(COC(=O)CN1C(=O)NC2(CCCCC2)C1=O)Nc1cc(F)ccc1F — higher, > 59.3 µg/mL
- Cc1cccc(/C=C/c2onc(C)c2[N+](=O)[O-])n1 — 2-fold lower, 2.8 µg/mL (≈ 11.4 µM)
